Like-named read-outs stand apart in the source and are kept apart here.
How the values were obtained:
HeLa cells = test: Dose-response growth inhibition (GI50) of select compounds; format: cell-based
Jurkat cells = test: as above; format: cell-based
RPMI7951 melanoma cells [1] = test: as above; format: cell-based; conditions: two days
Experimental: (§1) An example of the dose response curve for compound 30h and the BRaf inhibitor PLX4032 for inhibiting the growth of melanoma cell lines is shown in FIG. 14. […] A summary of GI50 values for select compounds along with comparisons to know ERK pathway inhibitors in various cell lines is shown in Table 13. […] First, thiazolidinedione compounds have been identified to be selective inhibitors of cancer cell lines containing activated ERK signaling. Second, changes in the 4-ethoxyphenyl component of the parent compound 76 improve selectivity and potency for inhibiting melanoma cell growth. Third, compound 30h is a potent inhibitor of melanoma cell lines that have become resistant to the clinically relevant BRaf and MEK inhibitors. […] Lastly, 30h is as potent as the ATP-competitive pyrazolopyridazinamine ERK inhibitor (FR180204) in preventing melanoma cell proliferation and provides an alternative non-ATP-dependent approach to target cancer cells that are dependent on active ERK signaling.
(§2) Melanoma cells (A375, SK-MEL-28, and RPMI7951) were seeded at a density of 5,000 per well in 96-well plate. After overnight incubation, cells were treated with varying doses of PLX4032 (A) or 31h (B) for two days. Cell viability was determined by the addition of Cell Titer-Blue Reagent (20 μL/well) followed by 2 hours of incubation at 37° C. after which fluorescence was recorded (555/585 nm). Cell viability was expressed as percentage of vehicle control and data represent the average of three individual experiments.

SK-MEL-28 melanoma cells [2] = test: as above; format: cell-based; conditions: two days
Experimental: as §1, §2

A375 melanoma cells [3] = test: as above; format: cell-based; conditions: two days
Experimental: as §1, §2

[4] = tested on: Jurkat T-cell leukemia cells; test: Cell proliferation WST-1 assay, single dose (Example 4); format: cell-based; conditions: 100 μM, 48 hours
How it was run: (§3)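 Proliferation is measured by WST-1 reduction: after roughly 5000 cells per well rest 16-20 hours, they receive compound for 48 hours, and the signal is normalized to DMSO control.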

RPMI-7951 melanoma cells = test: as above; format: cell-based; conditions: 100 μM, 48 hours
How it was run: as §3

[5] = tested on: HeLa cervical carcinoma cells; test: as above; format: cell-based; conditions: 100 μM, 48 hours
How it was run: as §3

SK-MEL-28 melanoma cells [6] = test: as above; format: cell-based; conditions: 100 μM, 48 hours
How it was run: as §3

A375 melanoma cells [7] = test: as above; format: cell-based; conditions: 100 μM, 48 hours
How it was run: as §3

HL-60 leukemic cells = test: as above; format: cell-based; conditions: 100 μM, 48 hours
How it was run: as §3

[8] = tested on: serum response element (SRE); test: SRE promoter luciferase assay, HeLa cells (Example 4); format: cell-based
Experimental: (§4) HeLa cells were seeded in 24-well plates (4×10^4 cells/well) and incubated 18 hours prior to achieve ˜60-70% confluent. Cells were transfected with activator protein-1 (pAP1(PMA)-TA-Luc; Clontech) or the serum response element (pGL4.33-SRE; Promega) luciferase reporter plasmids (250 ng/well) using Lipofectamine™ (Invitrogen). After 16 hours, cells were treated with increasing amount of compounds as indicated for 20 minutes, followed by stimulation with EGF (25 ng/mL) for 4.5 hr. The luciferase activity in the cell extracts was determined with a Dual Luciferase Assay System (Promega) according to the manufacturer's instructions. Luciferase activities were monitored with a Lumat LB 9507 luminometer (Berthold Technology) and data were normalized to the amount of protein in each sample.

[9] = basic group replacing the ethylamine group; cited from earlier work
[10] = tested on: activator protein-1 (AP-1) promoter; test: AP-1 promoter luciferase assay, HeLa cells (Example 4); format: cell-based; conditions: Homo sapiens, EGF 25 ng/mL, read-out: estimated IC50 AP-1 promoter activity
Experimental: as §4

[11] = tested on: Jurkat T-cell leukemia cells; test: Cell proliferation, fluorescent Cell Titer Blue Assay (Example 1); format: cell-based; conditions: Homo sapiens, 48 hours
Experimental: (§5) FIG. 5. Dose dependent inhibition of cancer cell proliferation in vitro by SF-3-026 and analogs. A375 (closes circles), RPM17951 (closed squares), HeLa (open circles), or Jurkat (open squares) cells were treated for 48 hours with indicated concentration of (a) SF-3-026, (b) SF-2-027, (c) SF-2-029, or (d) SF-2-030 and cell proliferation was assessed by the fluorescent Cell Titer Blue Assay. The data were reproduced in 3 separate experiments.
(§6) Cells were seeded at 25,000 cells/well in 96-well plate and cultured overnight. Cells were treated for 24 hours with various concentrations of compounds and cell viability or caspase 3/7 activity were measured according to manufacturer's instructions using the fluorescent Cell Titer Blue Assay (Promega) or luminescent Caspase 3/7 Glo Assay (Promega).
(§7) It was next determined whether inhibition of AP-1 proteins by SF-3-026 and analogs affected the proliferation of cancer cells driven by mutations that constitutively activate the ERK1/2 pathway. For these experiments, A375 and RPMI7951 melanoma cells, which have a valine to glutamate mutation on residue 600 in BRaf that causes constitutive ERK1/2 activation, were chosen. Moreover, RPMI7951 cells are resistant to clinically used BRaf inhibitors due to overexpression of MAP3K8 (the gene encoding COT/Tp12) that re-activates ERK1/2 signaling. Both melanoma cells lines were treated with varying doses of SF-3-026 or analogs and cell viability was compared to HeLa cervical carcinoma and Jurkat T-cell leukemia cells, which are p53 defective but contain no known activating mutations in the ERK1/2 pathway.

RPMI7951 melanoma cells [12] = test: as above; format: cell-based; conditions: Homo sapiens, RPMI-7951; 48 hours
Experimental: as §5, §6, §7

[13] = tested on: HeLa cervical carcinoma cells; test: as above; format: cell-based; conditions: Homo sapiens, 48 hours
Experimental: as §5, §6, §7

A375 melanoma cells [14] = test: as above; format: cell-based; conditions: Homo sapiens, A-375; 48 hours
Experimental: as §5, §6, §7

[15] = tested on: MEK1-induced AP-1 promoter activity; test: AP-1 promoter luciferase assay, HeLa cells expressing active MEK1 mutant; format: cell-based; conditions: Homo sapiens, 4 hours, read-out: IC50 inhibition of MEK1-induced AP-1 promoter activity
Experimental: FIG. 4. Compound SF-3-026 and analogs inhibit SRE and AP-1 transcription factor function. (a) HeLa cells were transfected with constructs containing SRE or AP-1 promoters driving luciferase expression and then stimulated with EGF in the presence or absence of SF-3-026 for 4 hours followed by measurements of luciferase activity. Cells treated with U0126 were used as a positive inhibitor control. (b and c) HeLa cells were prepared and treated as in (a) with the indicated concentrations of SF-3-026 or analogs for 4 hours followed by the measurement of luciferase activity regulated by the SRE (b) or AP-1 (c) promoters. Data in (b and c) were normalized to EGF-only treatment and represent the mean and standard deviation from three independent experiments. (d) Compound SF-3-026 and analogs inhibit MEK1-induced AP-1 transcription factor function. HeLa cells were transfected with the AP-1 promoter construct and a constitutively active MEK1 mutant in the presence (10 μM) or absence of the MEK1/2 inhibitor (U0126) or an ATP-competitive ERK inhibitor (ERKi) for 4 hours followed by measurements of luciferase activity. (e) Cells expressing the AP-1 promoter and an active MEK-1 construct were treated with the indicated concentrations of SF-3-026 or analogs for 4 hours followed by the measurement of luciferase activity. Data in (e) were normalized to active MEK1-only treatment and represent the mean and standard deviation from three independent experiments.
as §4, with “(40,000” for “(4×10^4”, “hours” for “hours prior”, “pre-treated” for “treated”, “varying amounts” for “increasing amount”, “hr. In some experiments, cells transfected with the pAP1(PMA)-TA-Luc promoter and a constitutively active MEK1 mutant cDNA were treated with varying amounts of compounds during the last 4 hours of incubation.” for “hr.”, “sample. […]” for “sample.”

| SMILES | GI50 (HeLa cells; Homo sapiens, HeLa) | GI50 (Jurkat cells; Homo sapiens, Jurkat) | GI50 (RPMI7951 melanoma cells [1]; Homo sapiens, RPMI-7951, 48 h) | GI50 (SK-MEL-28 melanoma cells [2]; Homo sapiens, SK-MEL-28, 48 h) | GI50 (A375 melanoma cells [3]; Homo sapiens, A-375, 48 h) | Cell Viability (% of Vehicle) Jurkat [4] | Cell Viability (% of Vehicle) RPMI-7951 (RPMI-7951 melanoma cells) | Cell Viability (% of Vehicle) HeLa [5] | Cell Viability (% of Vehicle) SK-MEL-28 (SK-MEL-28 melanoma cells [6]) | Cell Viability (% of Vehicle) A375 (A375 melanoma cells [7]) | Cell Viability (% of Vehicle) HL-60 (HL-60 leukemic cells) | pKa [9] | also measured |
| --- | --- | --- | --- | --- | --- | --- | --- | --- | --- | --- | --- | --- | --- |
| CCOc1ccc(/C=C2\SC(=O)N(Cc3cnc[nH]3)C2=O)cc1 [Compound 28a, (Z)-3((1H-imidazol-5-yl)methyl)-5-(4-ethoxybenzylidene)thiazolidine-2,4-dione] | – | – | – | – | – | 106 ± 6 % of Vehicle | 70 ± 2 % of Vehicle | 80 ± 4 % of Vehicle | 74 ± 6 % of Vehicle | 101 ± 2 % of Vehicle | 123 ± 20 % of Vehicle | ~7 | – |
| CCOc1ccc(/C=C2\SC(=O)N(Cc3cccc(N)n3)C2=O)cc1 [Compound 28b, (Z)-3-((6-aminopyridin-2-yl)methyl)-5-(4-ethoxybenzylidene)thiazolidine-2,4-dione] | – | – | – | – | – | 105 ± 5 % of Vehicle | 101 ± 4 % of Vehicle | 87 ± 6 % of Vehicle | 86 ± 3 % of Vehicle | 111 ± 1 % of Vehicle | 107 ± 26 % of Vehicle | ~6 | – |
| [H]/N=C(/N)NCCN1C(=O)SC(=Cc2ccc(OCC)cc2)C1=O [Compound 28c, (Z)-1-(2-(5-(4-ethoxybenzylidene)-2,4-dioxothiazolidin-3-yl)ethyl)guanidine] | – | – | – | – | – | 6.5 ± 0.5 % of Vehicle | 42 ± 6 % of Vehicle | 17 ± 2 % of Vehicle | 55 ± 6 % of Vehicle | 31 ± 4 % of Vehicle | 20 ± 6 % of Vehicle | ~12 | – |
| CC(C)COc1ccc(/C=C2\SC(=O)N(CCN)C2=O)cc1 [Compound 30g, (Z)-3-(2-aminoethyl)-5-(4-isobutoxybenzylidene)thiazolidine-2,4-dione] | ~100 µM | > 100 µM | 11 µM | 36 µM | 22 µM | 91 ± 8 % of Vehicle | 0.3 ± 0.04 % of Vehicle | 48 ± 3 % of Vehicle | 0.8 ± 0.2 % of Vehicle | 1.8 ± 0.5 % of Vehicle | 5.0 ± 2 % of Vehicle | – | IC50 [10]: ≤ 5 µM; IC50 ([8]; Homo sapiens, EGF 25 ng/mL, read-out: estimated IC50 SRE promoter activity): ≤ 5 µM |
| Nc1[nH]nc2nnc(-c3c(-c4ccccc4)nn4ccccc34)cc12 [FR180204, reference compound] | – | – | – | – | – | – | – | – | – | – | – | – | GI50 (HeLa cells): > 10 µM; GI50 (Jurkat cells): > 10 µM; GI50 (RPMI7951 melanoma cells [1]): 11 µM; GI50 (SK-MEL-28 melanoma cells [2]): 4 µM; GI50 (A375 melanoma cells [3]): 5 µM |
| Cc1ccc(S(=O)(=O)OC2C=CS(=O)(=O)C2)cc1 (stereo not shown) [SF-3-027] | – | – | – | – | – | – | – | – | – | – | – | – | GI50 [11]: > 50 µM; GI50 (RPMI7951 melanoma cells [12]): 3.1 µM; GI50 [13]: 22 µM; GI50 (A375 melanoma cells [14]): 5.5 µM; IC50 [15]: ~40 µM |

Second part, led by results:

| GI50 (HeLa cells; Homo sapiens, HeLa) | GI50 (Jurkat cells; Homo sapiens, Jurkat) | GI50 (RPMI7951 melanoma cells [1]; Homo sapiens, RPMI-7951, 48 h) | GI50 (SK-MEL-28 melanoma cells [2]; Homo sapiens, SK-MEL-28, 48 h) | GI50 (A375 melanoma cells [3]; Homo sapiens, A-375, 48 h) | SMILES | Cell Viability (% of Vehicle) Jurkat [4] | Cell Viability (% of Vehicle) RPMI-7951 (RPMI-7951 melanoma cells) | Cell Viability (% of Vehicle) HeLa [5] | Cell Viability (% of Vehicle) SK-MEL-28 (SK-MEL-28 melanoma cells [6]) | Cell Viability (% of Vehicle) A375 (A375 melanoma cells [7]) | Cell Viability (% of Vehicle) HL-60 (HL-60 leukemic cells) | pKa [9] | also measured |
| --- | --- | --- | --- | --- | --- | --- | --- | --- | --- | --- | --- | --- | --- |
| > 10 µM | > 10 µM | 20 µM | 0.17 µM | 0.03 µM | Cn1cnc2c(F)c(Nc3ccc(Br)cc3Cl)c(C(=O)NOCCO)cc21 [AZD6244, reference compound] | – | – | – | – | – | – | – | – |
| – | – | 17 µM | 46 µM | 24 µM | CCOc1ccc(/C=C2\SC(=O)N(CCCN)C2=O)cc1 [Compound 22a, (Z)-3-(3-aminopropyl)-5-(4-ethoxybenzylidene)thiazolidine-2,4-dione] | 9.0 ± 2 % of Vehicle | 0.6 ± 0.1 % of Vehicle | 12 ± 2 % of Vehicle | 0.5 ± 0.01 % of Vehicle | 0.7 ± 0.1 % of Vehicle | 8.0 ± 72 % of Vehicle | – | inhibition of ERK-mediated SRE promoter activity ([8]; EGF): selective inhibition of the SRE promoter activity |
| > 10 µM | > 10 µM | 11 µM | 0.38 µM | 0.07 µM | CCCS(=O)(=O)Nc1ccc(F)c(C(=O)c2c[nH]c3ncc(-c4ccc(Cl)cc4)cc23)c1F [PLX4032, reference compound] | – | – | – | – | – | – | – | – |

Source: patent US9115122B2, “Non-ATP dependent inhibitors of extracellular signal-regulated kinase (ERK)” (UNIVERSITY OF MARYLAND, BALTIMORE, priority 2012, dated 2015)
